Data as given in patent US9161951B2, “Parenteral nutrition composition containing iron” (priority 2005, dated 2015).

Key:
[1] = single parenteral nutrition component; cited from earlier work
[2] = in vivo; cited from earlier work
[3] = patients receiving TPN, 87.5-175 mg/week iron i.v., 3 week period; cited from earlier work
[4] = test system: iron deficiency anemia; conditions: 15 mg in PN admixture i.v. over 6 hours every day, 3 months
Excerpt: A patient with a history of bowel resection, secondary to inflammatory bowel disease is currently receiving TPN therapy at home. The patient develops iron deficiency anemia, secondary to ongoing bloody diarrhea and malabsorption of iron. The patient is unable to take iron supplements by mouth due to bloating and diarrhea.

O=C([O-])CC(O)(CC(=O)O)C(=O)[O-].[Fe+2] [ferrous citrate]
duration of compatibility with amino acid solution [1]: 1 days

O=P([O-])([O-])OP(=O)([O-])[O-].[Sn+2].[Sn+2] [stannous pyrophosphate]
reported adverse effects [2]: cause hypocalcemia and immediate toxic effects

iron dextran
effect on serum iron levels [3]: effectively raised serum iron levels

soluble ferric pyrophosphate [soluble FePPi]
correction of iron deficiency anemia [4]: effectively corrects iron deficiency anemia
